Experimental findings from patent EP1095021B1, “QUINOLINE DERIVATIVES” (Active Biotech AB, priority 1998, dated 2000) are described below.

Data set [1] concerns acute experimental autoimmune encephalomyelitis (aEAE). The data set can be described thus: Acute experimental autoimmune encephalomyelitis (aEAE) inhibition. In kind it is in vivo, SJL/N female mice. As to conditions: for % aEAE Inhibition: percent inhibition of clinical scores compared to saline treated controls.
For a further data set, the system named is foetuses. The data set can be described thus: Teratogenic effects in the rat. The data set is classed as in vivo. As to conditions: for % malformed fetuses: day 8 to 14 of pregnancy.
In data set [2] the test system is Beagle Pain Syndrome (BPS). The data set can be described thus: Beagle Pain Syndrome (BPS). The data set is classed as in vivo. Conditions: different breeds of beagle dogs. The procedure: The disease is reflected by clinical and laboratory manifestations justifying BPS as a model for the flu-like syndrome induced by roquinimex in man.
Beagle Pain Syndrome (BPS).
The compounds were administrated intravenously to beagle dogs. The dosage was given for five consecutive days. The dogs were evaluated for clinical and laboratory signs of the pain syndrome, e.g., fever, increased erythrocyte sedimentation rate (ESR), alkaline phosphate (AP), induction of acute phase proteins and vasculitis

Regarding `COc1cccc2c1c(O)c(C(=O)N(C)c1ccc(C(F)(F)F)cc1)c(=O)n2C` [Compound A, N-methyl-N-(4-trifluoromethyl-phenyl)-1,2-dihydro-4-hydroxy-5-methoxy-1-methyl-2-oxo-quinoline-3-carboxamide], the “% aEAE Inhibition” value in data set [1] (Dose 0.2 mg/kg p.o.) was 66%; in data set [1] (Dose 1 mg/kg p.o.), 86%; in data set [1] (Dose 5 mg/kg p.o.), 99%. Besides, the results for the “% malformed fetuses” value with foetuses (Dose 6 mg/kg p.o.) and in the data set with foetuses (Dose 30 mg/kg p.o.) were 4% and 2%, respectively.

In the case of `CN(C(=O)c1c(O)c2c(Cl)cccc2n(C)c1=O)c1ccc(F)cc1F` [Compound B, N-methyl-N-(2,4-difluorophenyl)-1,2-dihydro-4-hydroxy-5-chloro-1-methyl-2-oxo-quinoline-3-carboxamide], the “% aEAE Inhibition” value was determined as 59% in data set [1] (Dose 0.2 mg/kg p.o.), 96% in data set [1] (Dose 1 mg/kg p.o.) and 100% in data set [1] (Dose 5 mg/kg p.o.). Moreover, the “% malformed fetuses” value in the data set with foetuses (Dose 6 mg/kg p.o.) is listed as 0%.

In the case of `CN(C(=O)c1c(O)c2c(Cl)cccc2n(C)c1=O)c1ccccc1` [Compound C, N-Methyl-N-phenyl-1,2-dihydro-4-hydroxy-5-chloro-1-methyl-2-oxo-quinoline-3-carboxamide], the “% aEAE Inhibition” value in data set [1] (Dose 0.2 mg/kg p.o.) came out at 92%; in data set [1] (Dose 1 mg/kg p.o.) it was 100%. In addition, the “% malformed fetuses” value with foetuses (Dose 6 mg/kg p.o.) is 37%.

`CN(C(=O)c1c(O)c2ccccc2n(C)c1=O)c1ccccc1` [Compound D, N-phenyl-N-methyl-1,2-dihydro-4-hydroxy-1-methyl-2-oxo-quinoline-3-carboxamide]: the “% aEAE Inhibition” value in data set [1] (Dose 0.2 mg/kg p.o.) is on record as 35%; in data set [1] (Dose 1 mg/kg p.o.), 40%; in data set [1] (Dose 5 mg/kg p.o.) it was 69%. The “inhibition of acute experimental autoimmune encephalomyelitis (aEAE)” value in data set [1] (at ≥5 mg/kg, treatment control) is given as “more than 50%”. Moreover, the “% malformed fetuses” value in the data set with foetuses (Dose 10 mg/kg p.o.) is reported as 9%; with foetuses (Dose 30 mg/kg p.o.), 30%. In the data set on foetuses (rat), the teratogenic effect entry is recorded as “teratogenic”. In addition, the “Beagle Pain Syndrome (BPS)” value in data set [2] is on record as “induce the Beagle Pain Syndrome (BPS)”.
